Entries after “also recorded” stand apart in the source; their conditions may differ. Where two headings read alike, the source gives them in different places.
Key:
[1] = system: S. mansoni vcp/p97 (Smp_018240); test: High-throughput screen of S. mansoni p97 (Kinase-Glo, single concentration); assay type: biochemical, Schistosoma mansoni; conditions: for Screen Inhibition (%): 10 μM compound, normalized to CB-5083 control; for inhibition of S. mansoni p97 function in the screen: high-throughput screen, 10 μM
Experimental: (§1) Evaluation of p97’s ATPase activity and compound potency
(§2) For manual ATP consumption assays, 1 µM p97 was incubated with 1% DMSO or inhibitor (1% DMSO final) in assay buffer [50 mM Tris (pH 7.5), 20 mM MgCl2, 1 mM EDTA, 0.5 mM tris(2-carboxyethyl)phosphine (TCEP)] for 5 minutes prior to the addition of 20 µM ATP in a 384-well plate for a total reaction volume of 10 µL, and a final concentration of 500nM enzyme and 10 µM ATP. The reaction was allowed to proceed for 50 minutes at room temperature before adding equivalent volume of Kinase-Glo Plus reagent (Promega), and a further incubation of 10 minutes in the dark. […]
High-throughput screening (HTS) assay
Kinase-Glo (Promega, part K1214) was purchased from Promega. Microtiter plates (384 wells) were purchased from Perkin Elmer. All chemicals included in the UTSW library were sourced from commercial sources […]
TimTec (500)] or UT Southwestern chemists (https://www.utsouthwestern.edu/research/core-facilities/high- […]
throughput-screening/libraries/). […]
concentration of 10 µM (0.2% DMSO). Luminescence was read by EnVision multimode plate reader (Perkin-Elmer). Assay conditions were consistent between manual and high-throughput assays [10 µM ATP, 50 mM Tris (pH 7.5), 20 mM MgCl2, 1 mM EDTA, 0.5 mM tris(2-carboxyethyl)phosphine (TCEP)]. The plates were then incubated for 50 min at room temperature before addition of Kinase-Glo reagent and further incubation in the dark for 10 minutes before reading luminescence. […]
were obtained to determine activity of compounds on the enzyme. […]

[2] = biological target: T1, H. sapiens p97 (P55072) (Homo sapiens, UniProt P55072); test: Kinase-Glo ATP consumption assay, recombinant H. sapiens p97; assay type: biochemical; conditions: 100 μM to 1 nM
T1 construct: purified recombinant full-length (1-806aa) H; 6xHis (N); made in house; host or cells: E. coli BL21 (DE3)
T1 sequence (P55072 whole entry): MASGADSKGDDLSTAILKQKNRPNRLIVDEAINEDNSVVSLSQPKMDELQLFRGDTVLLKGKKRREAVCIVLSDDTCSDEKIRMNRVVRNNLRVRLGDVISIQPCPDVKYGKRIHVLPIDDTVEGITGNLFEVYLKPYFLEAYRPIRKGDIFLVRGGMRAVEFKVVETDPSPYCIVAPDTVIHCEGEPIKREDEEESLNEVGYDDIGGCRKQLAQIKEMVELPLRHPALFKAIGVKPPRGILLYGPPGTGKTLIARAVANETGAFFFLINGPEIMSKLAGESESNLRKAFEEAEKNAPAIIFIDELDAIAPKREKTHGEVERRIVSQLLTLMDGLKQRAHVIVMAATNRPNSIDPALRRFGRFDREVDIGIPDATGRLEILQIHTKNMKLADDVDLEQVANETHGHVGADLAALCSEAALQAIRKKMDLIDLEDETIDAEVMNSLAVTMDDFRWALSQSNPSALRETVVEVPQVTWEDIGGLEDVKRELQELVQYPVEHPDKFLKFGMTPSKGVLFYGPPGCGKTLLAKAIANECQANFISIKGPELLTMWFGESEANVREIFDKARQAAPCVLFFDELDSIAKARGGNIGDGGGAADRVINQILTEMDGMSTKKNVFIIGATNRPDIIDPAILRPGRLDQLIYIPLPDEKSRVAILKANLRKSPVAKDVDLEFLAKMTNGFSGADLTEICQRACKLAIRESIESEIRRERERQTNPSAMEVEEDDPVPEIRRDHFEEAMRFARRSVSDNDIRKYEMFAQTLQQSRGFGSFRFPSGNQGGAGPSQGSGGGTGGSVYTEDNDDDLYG

[3] = system: adult S. mansoni; test: Single-concentration (10 μM) treatment of adult worms, attachment and morphology; assay type: cell-based, Schistosoma mansoni; conditions: in vitro culture
Experimental: (§3) DMSO). All selected compounds were obtained from commercial vendors (Medchemexpress, Selleck Chemicals, Sigma-Aldrich, ApexBio, Tocris, Santa Cruz Biotechnology, and Cayman Chemical Company) (Dataset S4) with […]
(§4) the activity of the desired compounds. Roughly 5 adult worm pairs were placed in 3mL Basch medium in a 12-well culture vessel, and incubated at 37° C, 5% CO2 for the length of the experiment. Compound was administered at D0, D1, and D2, media and drug refreshed every 24 hr. Worms were then allowed to remain in culture until D5, where a final assessment of worm attachment to tissue culture substate was made by light microscopy.
Observations on movement and morphology were also recorded. A negative control (0.1% DMSO) and positive control (PZQ; 10 µM in 0.1% DMSO) were included in each experiment, and each experiment was repeated in triplicate for validation. […]

[4] = biological target: S. mansoni p97 (Smp_018240) (Schistosoma mansoni, UniProt G4M0P7); assay type: biochemical
Sequence of S. mansoni p97 (Smp_018240) (G4M0P7 entry or part of it): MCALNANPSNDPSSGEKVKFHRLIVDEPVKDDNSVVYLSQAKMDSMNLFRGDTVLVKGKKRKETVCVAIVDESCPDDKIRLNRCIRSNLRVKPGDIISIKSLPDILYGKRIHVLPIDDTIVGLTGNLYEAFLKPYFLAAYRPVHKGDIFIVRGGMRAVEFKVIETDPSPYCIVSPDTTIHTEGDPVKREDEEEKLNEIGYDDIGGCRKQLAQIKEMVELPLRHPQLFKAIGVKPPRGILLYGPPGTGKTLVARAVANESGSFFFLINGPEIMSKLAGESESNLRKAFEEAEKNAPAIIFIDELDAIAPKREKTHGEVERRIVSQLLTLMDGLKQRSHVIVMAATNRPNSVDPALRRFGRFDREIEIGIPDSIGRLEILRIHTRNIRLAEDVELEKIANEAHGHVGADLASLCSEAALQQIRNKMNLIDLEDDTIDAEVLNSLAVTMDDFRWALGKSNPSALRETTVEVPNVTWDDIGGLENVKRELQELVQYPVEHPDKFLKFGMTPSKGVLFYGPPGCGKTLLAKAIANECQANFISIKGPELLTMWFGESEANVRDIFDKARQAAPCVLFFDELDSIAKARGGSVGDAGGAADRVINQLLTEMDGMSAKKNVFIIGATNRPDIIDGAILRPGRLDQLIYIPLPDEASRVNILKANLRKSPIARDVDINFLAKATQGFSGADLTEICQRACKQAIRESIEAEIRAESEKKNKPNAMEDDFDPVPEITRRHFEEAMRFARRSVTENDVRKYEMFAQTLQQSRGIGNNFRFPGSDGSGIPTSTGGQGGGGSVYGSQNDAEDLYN
Experimental: as §1
as §2, with “dark. Luminescence was read using a BioTek Synergy 2 plate reader” for “dark.”
1 μM, 500 nM, 100 nM, 50 nM, 10 nM, 5 nM, 1 nM, and 0 nM) in triplicate, maintaining a concentration of 1% […]
were calculated using GraphPad Prism. […]

[5] = system: K48 polyubiquitinated proteins in adult S. mansoni; test: Western blot of K48 polyubiquitinated proteins in lysate of drug-treated worms; assay type: cell-based, Schistosoma mansoni; conditions: adult worm lysate after 48 h of treatment
Experimental: as §3
the activity of the desired compounds. Roughly 5 adult worm pairs were placed in 3mL Basch medium in a 12-well culture vessel, and incubated at 37° C, 5% CO2 for the length of the experiment. […]
(§5) For drug treatment studies, 10 male adult worms (single or paired with females) were supplemented with either 0.1% DMSO or inhibitor (0.1% DMSO final). For all experiments assessing on-target effects of potential parasite […]
(§6) After 48 hr, male parasites were separated […]
(§7) further processing. Male worm samples were homogenized with a pestle in 50 µL lysis buffer containing 2X […]
(Roche, cOmplete Mini, EDTA-free Tablets) and 10 mM DTT. The lysates were then sonicated on high for 5 min (30 sec on, 30 sec off) using a Bioruptor UCD-200. Lysates were centrifuged for 5 min at 10,000 g to remove […]
debris. Total protein was measured using the Detergent Compatible Bradford Assay (Pierce). 50 µg of protein samples denatured in SDS Sample buffer (95°C for 5 min) were separated on a Bio-Rad 4-20% TGX Stain-Free gel along with Precision Plus Protein Dual Color Standards (Bio-Rad) as a marker. Proteins were then transferred to a nitrocellulose membrane (Bio-Rad). The membrane was blocked in a 1:5 solution of Li-Cor Odyssey Blocking buffer in PBST for 1 hr before being immunoblotted overnight at 4°C with 1:500 K48-linkage Specific […]
(1:10,000) (Developmental Studies Hybridoma Bank, JLA20) diluted in a 1:5 solution of Li-Cor Odyssey Blocking buffer in PBST. The membrane was washed 3x in TBST and then incubated in 1:5 Li-Cor Odyssey […]
in TBST 3x before being imaged on a LiCor Odyssey Infrared Imager. […]

[6] = system: adult S. mansoni; test: Dose-response of compounds on adult worms (attachment to culture substrate, EC50); assay type: cell-based, Schistosoma mansoni; conditions: read-out: EC50 of commercial inhibitors of human orthologs on adult parasites
Experimental: as §3, §4
Observations on movement and morphology were also recorded. A negative control (0.1% DMSO) and positive control (PZQ; 10 µM in 0.1% DMSO) were included in each experiment, and each experiment was repeated in triplicate for validation. For compounds that caused complete detachment in replicate experiments, the treatment was expanded to three concentrations (10 µM, 5 µM, and 1 µM) following the same treatment schedule and controls as detailed above.
Each titration experiment was performed in triplicate according to the treatment regimen described above, using DMSO and PZQ as appropriate controls. Morphologies and motility were assessed by light microscopy, and dose-response curves were calculated using the primary readout of parasite attachment to tissue culture substrate in GraphPad Prism.
as §5, §6, §7
(Roche, cOmplete Mini, EDTA-free Tablets) and 10 mM DTT. The lysates were then sonicated on high for 5 min (30 sec on, 30 sec off) using a Bioruptor UCD-200. […]
Compounds were tested from 100 μM – 1 nM. Values were calculated using Prism.

[7] = recombinant Hsp97, Kinase-Glo, NA = no notable effect on the enzyme at tested concentrations, >100 = IC50 predicted above 100 μM or maximal inhibition not achieved
[8] = H. sapiens p97 IC50 versus S. mansoni p97 IC50
[9] = recombinant full-length enzyme, Kinase-Glo, 100 μM to 1 nM
[10] = recombinant full-length enzyme, Kinase-Glo

Molecule | Screen Inhibition (%) [1] [%] | IC50 [2, 7] [nM] | phenotype of adult worms after treatment [3] | IC50 [4] [nM] | Fold Selectivity (parasite enzyme over human enzyme) [4, 8] [fold] | other results
O=C(C=Cc1ccccc1)Nc1ccc2oc(-c3ccccc3)nc2c1 [Compound 135] | 1.1 |  |  |  |  | inhibition of S. mansoni p97 function in the screen [1]: inactive
O=C(C#Cc1ccccc1)Nc1ccc2oc(-c3ccncc3)nc2c1 [Compound 242] | 47 | 12000 ± 310 | led to death in adult parasites; also recorded: ultimately leading to their death | 1400 ± 110 | 8.6 | 
O=C(C#Cc1ccccc1)Nc1ccc2oc(-c3ccccn3)nc2c1 [Compound 243] | 46 | 20000 ± 540 | led to death in adult parasites; also recorded: ultimately leading to their death | 2100 ± 750 |  | Fold Selectivity (parasite enzyme over human enzyme) [4]: 9.5 fold
O=C(C#Cc1ccccc1)Nc1ccc2oc(-c3cccnc3)nc2c1 [Compound 244] | 16 |  | did not have any adverse effects on worm health and survival |  |  | 
O=C(C#Cc1ccccc1)Nc1ccc2oc(-c3ccccc3)nc2c1 [Compound 245] | 36 |  | did cause detachment, it did not lead to parasite death | 3800 ± 190 |  | 
O=C(/C=C\c1ccccc1)Nc1ccc2oc(-c3ccccc3)nc2c1 [Compound 324] | 1.1 |  |  |  |  | inhibition of S. mansoni p97 function in the screen [1]: inactive
O=C(CCc1ccccc1)Nc1ccc2oc(-c3ccccn3)nc2c1 [Compound 326] | 2.2 |  |  |  |  | inhibition of S. mansoni p97 function in the screen [1]: inactive
O=C(C#CC1CC1)Nc1ccc2oc(-c3ccccn3)nc2c1 [Compound 732] |  |  | still active on worms |  |  | 
COc1ccc(C#CC(=O)Nc2ccc3oc(-c4ccccn4)nc3c2)cc1 [Compound 734] |  | 83000 ± 6500 | decreased activity on the worms | 48000 ± 2600 | 1.7 | 
O=C(C#Cc1cccc(Cl)c1)Nc1ccc2oc(-c3ccccn3)nc2c1 [Compound 735] |  | 7300 ± 660 | still active on worms | 11000 ± 470 | 0.70 | 
O=C(C#Cc1ccc(Cl)cc1)Nc1ccc2oc(-c3ccccn3)nc2c1 [Compound 736] |  | 6700 ± 55 | decreased activity on the worms | 5900 ± 1300 | 1.1 | 
O=C(C#Cc1ccccn1)Nc1ccc2oc(-c3ccccn3)nc2c1 [Compound 737] |  | 13000 ± 2200 | decreased activity on the worms | 3000 ± 410 | 4.3 | 
O=C(C#Cc1cccnc1)Nc1ccc2oc(-c3ccccn3)nc2c1 [Compound 738] |  | 780 ± 140 | death of the parasites | 420 ± 57 | 1.9 | 
O=C(C#Cc1ccncc1)Nc1ccc2oc(-c3ccccn3)nc2c1 [Compound 739] |  | 320 ± 26 | death of the parasites |  | 2.1 | accumulation of K48 polyubiquitinated proteins by western blot [5]: on-target activity by western blot; IC50 [4, 9]: 150 nM
Cc1cccnc1-c1nc2cc(NC(=O)C#Cc3ccncc3)ccc2o1 [Compound 804] |  | 140 ± 62 |  | 190 ± 63 | 0.70 | 
Cc1ccnc(-c2nc3cc(NC(=O)C#Cc4ccncc4)ccc3o2)c1 [Compound 805] |  | 140 ± 78 |  | 170 ± 92 | 0.80 | 
Cc1ccc(-c2nc3cc(NC(=O)C#Cc4ccncc4)ccc3o2)nc1 [Compound 806] |  | 510 ± 160 |  | 470 ± 170 | 1.1 | 
Cc1cccc(-c2nc3cc(NC(=O)C#Cc4ccncc4)ccc3o2)n1 [Compound 807] |  | 490 ± 57 |  | 670 ± 170 | 0.70 | 
c1ccc(CNc2nc(NCc3ccccc3)c3ccccc3n2)cc1 [DbeQ, reference compound] |  |  | activity on the worms |  |  | accumulation of K48 polyubiquitinated proteins by western blot [5]: did not observe the same accumulation; IC50 [2, 10]: 910 ± 390 nM; IC50 [4, 9]: 12000 nM
CC1(C)C(N(O)C(=O)Nc2ccc(Cl)cc2)N(c2ccc(Cl)cc2)C(=O)N1CC(=O)N/N=C/C=C/c1ccc([N+](=O)[O-])o1 (stereo not shown) [Eeyarestatin I, reference compound] |  |  | effective |  |  | accumulation of K48 polyubiquitinated proteins by western blot [5]: did not see significant increases in K48 abundance
COc1cccc2c(NCc3ccccc3)nc(-n3c(N)nc4ccccc43)nc12 [ML240, reference compound] |  |  | killed parasites quickly |  |  | accumulation of K48 polyubiquitinated proteins by western blot [5]: did not observe the same accumulation; IC50 [2, 10]: 330 ± 61 nM; Fold Selectivity (parasite enzyme over human enzyme) [4]: ~ fivefold; IC50 [4, 9]: 66 ± 9.7 nM
CC(C)N1CCN(CCNC2CCN(c3cccc(-c4cc5cc(F)ccc5[nH]4)c3)CC2)CC1 [UPCDC-30245, reference compound] |  |  | effective |  |  | accumulation of K48 polyubiquitinated proteins by western blot [5]: did not see significant increases in K48 abundance; IC50 [2, 10]: 970 ± 67 nM; selectivity between schistosome and human p97 [4]: selective in favor of the human enzyme; IC50 [4, 9]: 4100 nM
AG-270 |  |  |  |  |  | EC50 [6]: 180 nM

Reference: article PMC12415213, “A genome-scale drug discovery pipeline uncovers therapeutic targets and a unique p97 allosteric binding site in Schistosoma mansoni” (Proceedings of the National Academy of Sciences of the …, 2025)
